Assay [1] deals with GFP-MyoVa-GTD. Briefly: Co-immunoprecipitation from HEK293 cells. In kind it is binding, Mus musculus. The conditions noted are these: anti-Myc co-IP, HEK293, immunoblot, N = 2. On the procedure:
(§1) HEK293 cells were transfected with expression vectors encoding Myc-tagged Spir proteins and GFP-tagged myosin Va and myosin Vb fragments. 48 hr post transfection, cells were lysed in lysis buffer (25 mM Tris-HCl pH 7.4, 150 mM NaCl, 5 mM MgCl2, 10% (v/v) glycerol, 0.1% (v/v) Nonidet P-40, 1 mM Phenylmethylsulfonylfluorid (PMSF; Sigma-Aldrich), protease inhibitor cocktail (complete mini, EDTA-free; Roche, Penzberg, Germany)) and centrifuged at 20,000 x g, 4°C, 20 min to remove insoluble debris. The clarified supernatant was incubated with 4 µg anti-c-Myc antibody (9E10, mouse monoclonal; Santa Cruz Biotechnology; RRID: AB_627268) for 1 hr on ice. Subsequently, 40 µl Protein G-Agarose beads (1:1 suspension; Roche) were added and incubated for 2 hr at 4°C on a rotating wheel. Beads were washed with pulldown buffer (25 mM Tris-HCl pH 7.4, 150 mM NaCl, 5 mM MgCl2, 10% (v/v) glycerol, 0.1% (v/v) Nonidet P-40). Bound proteins were eluted with 1x Laemmli buffer and denatured for 10 min at 95°C, then analyzed by immunoblotting.
For orientation: In western blotting, separated proteins are transferred to a membrane and probed.

For assay [2], the system named is GFP-MyoVb-GTD. Briefly: Co-immunoprecipitation from HEK293 cells. In kind it is binding, Homo sapiens. Particulars: anti-Myc co-IP, HEK293, immunoblot. On the procedure: as §1
Assay [3] has as its system GST-Rab11a-Q70L. Nature of the assay: GST-pulldown from HEK293 lysates. In kind it is binding. Particulars: N = 2. On the procedure:
HEK293 cells were co-transfected with expression vectors encoding Myc-Spir-2-FL, mStrawberry-FMN2-FH2-FSI, eGFP-MyoVa-D-FL and eGFP-MyoVa-D-Q1753R, respectively. 24 hr post transfection, cells were lysed in lysis buffer (25 mM Tris-HCl pH 7.4, 150 mM NaCl, 5 mM MgCl2, 10% (v/v) glycerol, 0.1% (v/v) Nonidet P-40, 1 mM PMSF, protease inhibitor cocktail) and centrifuged at 20,000 x g, 4°C, 20 min to remove insoluble debris. For GST-pulldown assays 65 µg GST-Rab11a-Q70L protein (25 µg GST control) was coupled to GSH-Sepharose 4B beads (1:1 suspension) for 1 hr, 4°C on a rotating wheel. Beads were washed twice with pulldown buffer (25 mM Tris-HCl pH 7.4, 150 mM NaCl, 5 mM MgCl2, 10% (v/v) glycerol, 0.1% (v/v) Nonidet P-40) and subsequently incubated with the cell lysates for 2 hr at 4°C on a rotating wheel. Beads were washed four times with pulldown buffer and bound proteins were eluted with 1x Laemmli buffer and denatured at 95°C for 10 min, then were analyzed by immunoblotting.

The test system of assay [4] is Spir-1. Briefly: GST-pulldown from mouse brain lysates. Format: binding. The conditions noted are these: 50 µg GST-fusion protein; immunoblot anti-Spir-1; N = 3. On the procedure: Wild-type C57BL/6 (Jackson Laboratory, Bar Harbor, ME, USA) mice were killed by cervical dislocation. The brain was isolated immediately, washed in cold PBS and lysed in lysis buffer (25 mM Tris-HCl pH 7.4, 150 mM NaCl, 5 mM MgCl2, 10% (v/v) glycerol, 0.1% (v/v) Nonidet P-40, 0.1 M NaF, 1 mM Na3VO4, 1 mM PMSF, protease inhibitor cocktail) using a TissueRuptor (Qiagen). Following incubation on ice for 45 min, the lysate was centrifuged at 20,000 x g, 4°C until the supernatant was clear. Brain lysates were incubated with GSH-Sepharose 4B beads, loaded with 50 µg GST-fusion proteins as indicated, for 2.5 hr at 4°C on a rotating wheel. Beads were washed five times with pulldown buffer and bound proteins were eluted by 1x Laemmli buffer and denatured at 95°C for 10 min. Pulled proteins were analyzed by immunoblotting.

The test system of assay [5] is Rab11a-Q70L. Briefly: GST-pulldown with purified proteins, tripartite complex. In kind it is binding, Homo sapiens. The conditions noted are these: N = 3. On the procedure: For GST-pulldown assays, 50 µg of GST-fusion protein was coupled to GSH-Sepharose 4B beads (1:1 suspension) for 1 hr at 4°C on a rotating wheel. Beads were washed twice with pulldown buffer and subsequently incubated with 20 µg His6-mCherry-fusion peptides for 2 hr, 4°C on a rotating wheel. In order to identify the tripartite Spir-2:MyoVa:Rab11a complex, 65 µg GST-Spir-2-GTBM-SB-FYVE was coupled to beads. Subsequently, beads were incubated with 40 µg MyoVa-GTD and 35 µg Rab11a-Q70L simultaneously for 2 hr. Beads were washed four times with pulldown buffer and bound proteins were eluted by 1x Laemmli buffer and denatured at 95°C for 10 min. Pulled proteins were analyzed by immunoblotting.

We go through four molecules from article PMC5021521, “Coordinated recruitment of Spir actin nucleators and myosin V motors to Rab11 vesicle membranes” (eLife, 2016).

“Also recorded” adds a separate entry of the source. Ends that are not written are not given here.

For “Spir-2: Myc-hs-Spir2 aa 2 - 714, full-length (QRPRPRVLLKAPTLAEMEEMNTSEEEE)”, the “co-precipitation / interaction with MyoVa-GTD in words” value in assay [1] was “interacts”; in assay [1] (listed as Myc-Spir-2), “co-precipitation”. In addition, the “co-precipitation / interaction with MyoVb-GTD in words” value is “did interact with the GFP-MyoVb-GTD” in assay [2] and “co-precipitation” in assay [2] (listed as Myc-Spir-2). Also, the “pulldown by GST-Rab11a-Q70L in words” value in assay [3] (HEK293 lysates over-expressing Myc-Spir-2, Straw-FMN2-FH2-FSI and GFP-MyoVa-FL) is reported as “able to pull down Myc-Spir-2”. Besides, the “pulldown by GST-Rab11a-Q70L in words, with Q1753R mutant MyoVa” value in assay [3] (HEK293 lysates with GFP-MyoVa-Q1753R in place of GFP-MyoVa-FL) is “Only faint”.
For “GST-FMN2-eFSI: GST-mm-FMN2-eFSI aa 1523 - 1578, positive control ({GST}-EFSSDFKDAWKKENKLILQERVKEAEEVCRQKKGKSLYKVKPRHDSGIKAKISMKT) [reference compound]”, the “pulldown of endogenous Spir-1 in words” value in assay [4] is on record as “able to pull endogenous Spir-1 from mouse brain lysates”.

B1: GST-MyoVb-GTD: GST-hs-MyoVb-GTD aa 1467 - 1848 (protein)
chain: QGMLEYHKEDEALLIRNLVTDLKPQMLSGTVPCLPAYILYMCIRHADYTNDDLKVHSLLTSTINGIKKVLKKHNDDFEMTSFWLSNTCRLLHCLKQYSGDEGFMTQNTAKQNEHCLKNFDLTEYRQVLSDLSIQIYQQLIKIAEGVLQPMIVSAMLENESIQGLSGVKPTGYRKRSSSMADGDNSYCLEAIIRQMNAFHTVMCDQGLDPEIILQVFKQLFYMINAVTLNNLLLRKDVCSWSTGMQLRYNISQLEEWLRGRNLHQSGAVQTMEPLIQAAQLLQLKKKTQEDAEAICSLCTSLSTQQIVKILNLYTPLNEFEERVTVAFIRTIQAQLQERNDPQQLLLDAKHMFPVLFPFNPSSLTMDSIHIPACLNLEFLNEV
modifications: left off: GST, end not stated, kept
As for B1, the “pulldown of endogenous Spir-1 in words” value in assay [4] is listed as “able to pull endogenous Spir-1 from mouse brain lysates”.

B2: GST-Spir-2-GTBM-SB-FYVE: GST-hs-Spir2-GTBM-SB-FYVE aa 361 - 714 (protein)
chain: GEGWAARGFGSLPCILNACSGDAKSTSCINLSVTDAGGSAQRPRPRVLLKAPTLAEMEEMNTSEEEESPCGEVTLKRDRSFSEHDLAQLRSEVASGLQSATHPPGGTEPPRPRAGSAHVWRPGSRDQGTCPASVSDPSHPLLSNRGSSGDRPEASMTPDAKHLWLEFSHPVESLALTVEEVMDVRRVLVKAEMEKFLQNKELFSSLKKGKICCCCRAKFPLFSWPPSCLFCKRAVCTSCSIKMKMPSKKFGHIPVYTLGFESPQRVSAAKTAPIQRRDIFQSLQGPQWQSVEEAFPHIYSHGCVLKDVCSECTSFVADVVRSSRKSVDVLNTTPRRSRQTQSLYIPNTRTLDFK
modifications: left off: GST, end not stated, kept
B2: the “pulldown of Rab11a-Q70L in words” value in assay [5] (in the presence of MyoVa-GTD) is reported as “allows GST-Spir-2-GTBM-SB-FYVE to pull Rab11a-Q70L”; in assay [5] (without MyoVa-GTD) it was “does not interact with Rab11a-Q70L; also recorded: does not pull down Rab11a-Q70L”.
